Measured values from US11219625B2, “Inhibitors of N-linked glycosylation and methods using same” (YALE UNIVERSITY, priority 2015, dated 2022).

Legend:
Assay type in all cases: cell-based
[1] = system: EGFR; assay: Western blot of EGFR phosphorylation, PC9 cells; conditions: PC9, 10 μM NGI-1, 1 day
Method: FIGS. 4A-4H illustrate the finding that NGI-1 blocks RTK driven proliferation. FIG. 4A illustrates western blot analysis of EGFR phosphorylation (Y1173) and gel mobility in PC9 (EGFR-mutant) and A549 (k-ras mutant) NSCLC cells after 10 μM NGI-1 treatment for 24 h. […] Actin expression was used as a control for protein loading. FIG. 4B illustrates MTT assays results of PC9 following treatment with 10 μM NGI-1 or 1 μM tunicamycin for a total of 5 d. Relative proliferation id reported in fold increase from day 0. FIG. 4C illustrates MTT assays results of A549 following treatment with 10 μM NGI-1 or 1 μM tunicamycin for a total of 5 d. Relative proliferation id reported in fold increase from day 0. FIG. 4D illustrates protein phosphorylation profiles of PC9 cells analyzed by phospho-protein array to assess the response of PC9 to 10 μM NGI-1 for 24 h. FIG. 4E illustrates protein phosphorylation profiles of A549 cells analyzed by phospho-protein array to assess the response of A549 to 10 μM NGI-1 for 24 h. FIG. 4F illustrates western blot analysis of FGFR phosphorylation (Y653/654) and gel mobility for H1581 (TKI sensitive) and H2444 (TKI insensitive) NSCLC cell lines. […] FIG. 4G illustrates MTT assays for H1581 cells treated with 10 μM NGI-1 for 5 d. Asterisk (***) indicates a significant difference p<0.001 for MTT. FIG. 4H illustrates MTT assays for H2444 cells treated with 10 μM NGI-1 for 5 d. […]

[2] = system: PC9 cells; assay: Assessment of senescence, autofluorescence by flow cytometry, PC9; conditions: PC9, NGI-1 treatment for 5 days
Method: FIGS. 5A-5G illustrate NGI-1 induces G1 arrest and senescence in EGFR addicted tumor cells. FIG. 5A illustrates cell cycle distribution of PC9 cells after 24 h NGI-1 treatment for 24 h determined by flow cytometry. […] FIG. 5B illustrates cell cycle distribution of A549 cells after 24 h NGI-1 treatment for 24 h determined by flow cytometry. FIG. 5C illustrates western blot time course of cyclin D1 expression in PC9 and A549 cells after NGI-1 treatment. FIG. 5D illustrates quantitative real-time PCR analysis of PC9 and A549 cells. A time course of cyclin D1 expression levels relative to GAPDH is represented. […] FIG. 5F illustrates senescence of PC9 cells explored by: cell autofluorescence, measured by flow cytometry using a detector for PE/YFP; lipofuscin accumulation, detected by confocal laser scanning microscopy using an excitation laser of 405 nm with acquired signals from spectrums of yellow 575-620 nm; and morphology changes, enlarged vs. flattened. […] Significance was calculated using a T test (*p<0.05. **p<0.01). FIG. 5G illustrates senescence of A549 cells explored by: cell autofluorescence, measured by flow cytometry using a detector for PE/YFP; lipofuscin accumulation, detected by confocal laser scanning microscopy using an excitation laser of 405 nm with acquired signals from spectrums of yellow 575-620 nm; and morphology changes, enlarged vs. flattened. […]

[3] = system: H2444 cells; assay: MTT proliferation assay, H2444; conditions: H2444, 10 μM NGI-1, 5 d
Method: FIGS. 4A-4H illustrate the finding that NGI-1 blocks RTK driven proliferation. FIG. 4A illustrates western blot analysis of EGFR phosphorylation (Y1173) and gel mobility in PC9 (EGFR-mutant) and A549 (k-ras mutant) NSCLC cells after 10 μM NGI-1 treatment for 24 h. […] Actin expression was used as a control for protein loading. FIG. 4B illustrates MTT assays results of PC9 following treatment with 10 μM NGI-1 or 1 μM tunicamycin for a total of 5 d. Relative proliferation id reported in fold increase from day 0. FIG. 4C illustrates MTT assays results of A549 following treatment with 10 μM NGI-1 or 1 μM tunicamycin for a total of 5 d. Relative proliferation id reported in fold increase from day 0. FIG. 4D illustrates protein phosphorylation profiles of PC9 cells analyzed by phospho-protein array to assess the response of PC9 to 10 μM NGI-1 for 24 h. FIG. 4E illustrates protein phosphorylation profiles of A549 cells analyzed by phospho-protein array to assess the response of A549 to 10 μM NGI-1 for 24 h. […]
Growth rates were determined by CellTiter 96 NonRadioactive Cell Proliferation Assay (Promega; Madison, Wis. USA) according to the manufacturer's directions. […] Cell numbers were estimated after 0, 3, and 5 days by adding MTT [(3-(4,5-Dimethylthiazol-2-yl)-2,5-diphenyltetrazolium bromide] reagent to the wells 4 hours before taking the spectrophotometric reading (absorbance at 570 nm).

## Cc1cnc(NC(=O)c2cc(S(=O)(=O)N(C)C)ccc2N2CCCC2)s1 [NGI-1, 5-(N,N-Dimethylsulfamoyl)-N-(5-methylthiazol-2-yl)-2-(pyrrolidin-1-yl)benzamide]
[1]
  EGFR phosphorylation: blocked phosphorylation of KD mutant EGFR
[2]
  increase of autofluorescence by flow cytometry: < 60%
[3]
  effect on proliferation, MTT: insensitive to NGI-1
